Data on one compound can be found in ChEMBL document CHEMBL5360559, “Machine learning- and structure-based discovery of a novel chemotype as FXR agonists for potential treatment of nonalcoholic fatty liver disease” (Eur J Med Chem, 2023).

Series [1] deals with HepG2. The series is described as follows: Induction of dyslipidemia in human HepG2 cells assessed as downregulation of ApoC3 gene expression at 10 uM by qPCR analysis. In kind it is toxicity, cell-based. To be noted: hepg2, 10 µM. (In general: In qPCR the cycle at which signal appears reflects the starting amount.)
The test system of series [2] is HepG2. As to the kind of experiment: Induction of dyslipidemia in human HepG2 cells assessed as downregulation of ApoA1 gene expression at 10 uM by qPCR analysis. The format is toxicity, cell-based. To be noted: hepg2, 10 µM.

Structures are written as SMILES.

For `CC[C@H]1[C@@H](O)[C@@H]2[C@H](CC[C@]3(C)[C@@H]([C@H](C)CCC(=O)O)CC[C@@H]23)[C@@]2(C)CC[C@@H](O)C[C@@H]12` [OBETICHOLIC ACID], the Activity result in series [1] and in series [2] was “Toxic” each time.
